System: Plasmodium berghei
Assay: Luciferase/luciferin-expressing antifolate-resistant parasites were used to infect a culture of HepG2 cells that were pre-incubated with compounds. Infected hepatocytes emit light due to the luciferase reaction. Assay results are presented as the percent inhibition of light emission compared to control. […]
Assay type: functional
Conditions: sporozoite; for IC90: read-out: LUCIFERASE INFECTION ASSAY - IC90
[1] = read-out: LUCIFERASE INFECTION ASSAY - IC50

Row | SMILES | IC90 [µM] | IC50 [1] [µM] | also measured
1 | C[C@]12CC[C@H](O)C[C@H]1CCC1C2CC[C@]2(C)[C@@H](C3=CC(=O)OC3)CC[C@]12O (some centres undefined) | 0.225 |  | IC50 (HEPG2TOX_HILL_SLOPE 2.19, HEPG2TOX_R_SQUARED 0.915, PBLUC_HILL_SLOPE 1.64, PBLUC_R_SQUARED 0.798, read-out: LUCIFERASE INFECTION ASSAY - IC50): 0.0591 µM
2 | Fc1ccc(-c2ccc3ncc(-c4cccnc4)n3n2)cc1 | > 3.33 |  | IC50 (HEPG2TOX_HILL_SLOPE 0.173, HEPG2TOX_R_SQUARED 0.325, read-out: LUCIFERASE INFECTION ASSAY - IC50): > 3.33 µM
3 | CN(C)c1cccc(-c2ccc3nnc(-c4cscn4)n3c2)c1 | > 10 | > 10 | 
4 | O=C(/C=C/c1cccc([N+](=O)[O-])c1)c1cccc(N2CCCC2=O)c1 | 4.73 |  | IC50 (HEPG2TOX_HILL_SLOPE 11.8, HEPG2TOX_R_SQUARED 0.912, PBLUC_HILL_SLOPE 14.2, PBLUC_R_SQUARED 0.853, read-out: LUCIFERASE INFECTION ASSAY - IC50): 4.05 µM
5 | S=C(NCc1ccccc1)N/N=C1/CCCCC1C1CCCCC1 (centres undefined) | > 10 | > 10 | 
6 | Cn1cc(-c2cn3c(-c4ccc5c(ccn5C)c4)cnc3cn2)cn1 | 1.47 |  | IC50 (HEPG2TOX_HILL_SLOPE 1.22, HEPG2TOX_R_SQUARED 0.939, PBLUC_HILL_SLOPE 1.34, PBLUC_R_SQUARED 0.885, read-out: LUCIFERASE INFECTION ASSAY - IC50): 0.287 µM
7 | C=CCNC(=S)N1CCc2sccc2C1c1ccc(Cl)cc1 (centres undefined) | > 9.46 |  | IC50 (PBLUC_HILL_SLOPE 2.11, PBLUC_R_SQUARED 0.465, read-out: LUCIFERASE INFECTION ASSAY - IC50): 4.12 µM
8 | CCC(C)c1ccc(S(=O)(=O)N2CCN(C(C)C(=O)N3c4ccccc4CC3C)CC2)cc1 (centres undefined) | > 10 | > 10 | 
9 | Cc1cccc(C)c1NC(=O)CSc1nc(=O)c2c(C)c(-c3ccccc3)sc2[nH]1 | > 10 | > 10 | 
10 | O=[N+]([O-])c1ccc(Sc2ccc(F)cc2)c2nonc12 | > 11.3 |  | IC50 (FFLUC_HILL_SLOPE 1.53, FFLUC_R_SQUARED 0.17, HEPG2TOX_HILL_SLOPE 11.1, HEPG2TOX_R_SQUARED 0.647, PBLUC_HILL_SLOPE 22.5, PBLUC_R_SQUARED 0.184, read-out: LUCIFERASE INFECTION ASSAY - IC50): 10.5 µM
11 | Cc1ccc2nc(Cn3cc(C(F)(F)F)cc(Cl)c3=O)cn2c1 | > 10 | > 10 | 
12 | FC(F)(F)c1ccc(C2c3ccsc3CCN2C(=S)Nc2ccc(Cl)cc2Cl)cc1 (centres undefined) | > 6.77 | 4.24 | 
13 | COc1ccc(C2Sc3ccccc3N=C3C2=C(O)c2ccccc23)cc1 (centres undefined) | 1.84 |  | IC50 (PBLUC_HILL_SLOPE 1.48, PBLUC_R_SQUARED 0.746, read-out: LUCIFERASE INFECTION ASSAY - IC50): 0.42 µM
14 | COc1ccc(OCCCC(=O)N(Cc2ccccc2)c2nc3c(C)cccc3s2)cc1 | > 10 | > 10 | 
15 | CC(C)c1ccc(Nc2nccc3nc(-c4cccc(F)c4)[nH]c23)cc1 | > 10 |  | IC50 (HEPG2TOX_HILL_SLOPE 1.91, HEPG2TOX_R_SQUARED 0.651, PBLUC_HILL_SLOPE 0.872, PBLUC_R_SQUARED 0.722, read-out: LUCIFERASE INFECTION ASSAY - IC50): 1.39 µM
16 | Cc1ccc(/C=C2\Oc3cc(O)cc(C)c3C2=O)cc1 | 7.36 |  | IC50 (FFLUC_HILL_SLOPE 2.5, FFLUC_R_SQUARED 0.135, PBLUC_HILL_SLOPE 2.13, PBLUC_R_SQUARED 0.666, read-out: LUCIFERASE INFECTION ASSAY - IC50): 2.63 µM
17 | COc1cccc(NC(=O)Nc2nc(-c3cc4ccccc4o3)cs2)c1 | 7.91 |  | IC50 (PBLUC_HILL_SLOPE 6.07, PBLUC_R_SQUARED 0.713, read-out: LUCIFERASE INFECTION ASSAY - IC50): 5.5 µM
18 | Cn1nc(-c2ccc(/C=C(\C#N)S(C)(=O)=O)s2)cc1C(F)(F)F | > 9.13 | > 9.13 | 
19 | COCCn1c(C)cc(C(=O)CSc2nnc(C)s2)c1C | > 10.1 |  | IC50 (FFLUC_HILL_SLOPE 1.54, FFLUC_R_SQUARED 0.663, PBLUC_HILL_SLOPE 0.577, PBLUC_R_SQUARED 0.574, read-out: LUCIFERASE INFECTION ASSAY - IC50): 0.418 µM
20 | O=C(COc1cc(N2CCCC2=O)ccc1[N+](=O)[O-])NCc1ccco1 | > 10 | > 10 | 
21 | COc1cc(C(=O)c2c(-c3ccccc3)cc3ccccn23)cc(OC)c1OC | 0.409 |  | IC50 (HEPG2TOX_HILL_SLOPE 0.582, HEPG2TOX_R_SQUARED 0.857, PBLUC_HILL_SLOPE 12.9, PBLUC_R_SQUARED 0.72, read-out: LUCIFERASE INFECTION ASSAY - IC50): 0.344 µM

Row | SMILES | IC90 [µM] | IC50 [1] [µM] | also measured
22 | C#Cc1cccc(NC(=O)c2ccc(C(C)(C)C)s2)c1 | 8.24 |  | IC50 (FFLUC_HILL_SLOPE 0.741, FFLUC_R_SQUARED 0.211, PBLUC_HILL_SLOPE 2.38, PBLUC_R_SQUARED 0.594, read-out: LUCIFERASE INFECTION ASSAY - IC50): 3.28 µM
23 | Clc1ccccc1-c1nc2ccnc(NCCc3ccccc3)c2[nH]1 | 7.97 |  | IC50 (HEPG2TOX_HILL_SLOPE 0.707, HEPG2TOX_R_SQUARED 0.751, PBLUC_HILL_SLOPE 2.17, PBLUC_R_SQUARED 0.665, read-out: LUCIFERASE INFECTION ASSAY - IC50): 2.9 µM
24 | Nc1ncc(-c2ccc(-c3ccccc3)cc2F)cc1-c1ccccc1F | > 9.21 |  | IC50 (PBLUC_HILL_SLOPE 34.9, PBLUC_R_SQUARED 0.254, read-out: LUCIFERASE INFECTION ASSAY - IC50): 8.92 µM
25 | CCn1c(C)nc2cc(C(=O)NNC(=O)/C=C/c3cccc(C(F)(F)F)c3)ccc21 | > 10 | > 10 | 
26 | CCOc1ccc2c(c1)O/C(=C\c1cc(Cl)cc3c1OCOC3)C2=O | 6.53 |  | IC50 (HEPG2TOX_HILL_SLOPE 2.45, HEPG2TOX_R_SQUARED 0.948, PBLUC_HILL_SLOPE 1.42, PBLUC_R_SQUARED 0.8, read-out: LUCIFERASE INFECTION ASSAY - IC50): 1.39 µM
27 | COc1cc(NC(=O)Nc2nc(C(N)Cc3ccc(C(F)(F)F)cc3)cs2)cc(OC)c1OC (centres undefined) | > 6.65 |  | IC50 (PBLUC_HILL_SLOPE 15.7, PBLUC_R_SQUARED 0.39, read-out: LUCIFERASE INFECTION ASSAY - IC50): 6.04 µM
28 | CSc1c(C#N)c(-c2ccc(Cl)cc2)nn1C(=O)C(C)C | > 10.3 |  | IC50 (PBLUC_HILL_SLOPE 1.94, PBLUC_R_SQUARED 0.662, read-out: LUCIFERASE INFECTION ASSAY - IC50): > 10.3 µM
29 | O=C(Nc1cccc(NC(=O)c2cc(C3CC3)nc3c2nc2n3CCCCC2)c1)c1ccco1 | > 10 | > 10 | 
30 | CC1CCCC(C)N1C(=O)Nc1cccc(Cl)c1 (centres undefined) | > 12.4 | > 12.4 | 
31 | CSc1[nH]c(=O)c(C(=O)NCCc2c(C)cc(C(C)(C)C)cc2C)cc1C#N | 7.29 |  | IC50 (PBLUC_HILL_SLOPE 3.23, PBLUC_R_SQUARED 0.351, read-out: LUCIFERASE INFECTION ASSAY - IC50): 3.69 µM
32 | CC(C)C(CNc1ncnc2cc(Cl)ccc12)N1CCN(C)CC1 (centres undefined) | > 10 |  | IC50 (HEPG2TOX_HILL_SLOPE 6.21, HEPG2TOX_R_SQUARED 0.178, read-out: LUCIFERASE INFECTION ASSAY - IC50): > 10 µM
33 | O=C(N/N=C/C1=C(N2CCOCC2)C(=C/c2ccc(Cl)cc2Cl)/CC1)c1ccco1 | 6.76 |  | IC50 (PBLUC_HILL_SLOPE 1.95, PBLUC_R_SQUARED 0.652, read-out: LUCIFERASE INFECTION ASSAY - IC50): 2.18 µM
34 | CC(C)c1ccc(Nc2nccc3nc(-c4ccc(F)c(F)c4)[nH]c23)cc1 | > 10 |  | IC50 (HEPG2TOX_HILL_SLOPE 1.58, HEPG2TOX_R_SQUARED 0.81, PBLUC_HILL_SLOPE 0.658, PBLUC_R_SQUARED 0.852, read-out: LUCIFERASE INFECTION ASSAY - IC50): 0.969 µM
35 | CCOC(=O)C1CCCN(Cn2nc(-c3ccc(Br)cc3)n(C3CCCCC3)c2=S)C1 (centres undefined) | > 10 |  | IC50 (PBLUC_HILL_SLOPE 2.91, PBLUC_R_SQUARED 0.109, read-out: LUCIFERASE INFECTION ASSAY - IC50): 5.86 µM
36 | COc1ccc(-c2cnc3cnc(-c4cccc(C(N)=O)c4)cn23)cn1 | 3.91 |  | IC50 (PBLUC_HILL_SLOPE 17.6, PBLUC_R_SQUARED 0.459, read-out: LUCIFERASE INFECTION ASSAY - IC50): 3.45 µM
37 | Cn1ccc2cc(-c3cn4c(-c5ccc(Cl)cc5)cnc4cn3)ccc21 | 0.448 | 0.247 | 
38 | Cc1csc(CNc2nc(-c3cccnc3)nc3sc(C)c(C)c23)n1 | 5.63 |  | IC50 (PBLUC_HILL_SLOPE 1.92, PBLUC_R_SQUARED 0.84, read-out: LUCIFERASE INFECTION ASSAY - IC50): 1.79 µM
39 | COc1cc(OC)cc(C(=O)NNC(=O)CCC(=O)c2ccc(Cl)s2)c1 | > 10 | > 10 | 
40 | CO/N=C(/CS(=O)(=O)c1ccc(Cl)cc1)c1ccc(Cl)cc1 | 3.25 |  | IC50 (HEPG2TOX_HILL_SLOPE 1.88, HEPG2TOX_R_SQUARED 0.932, PBLUC_HILL_SLOPE 2.15, PBLUC_R_SQUARED 0.742, read-out: LUCIFERASE INFECTION ASSAY - IC50): 1.17 µM
41 | Cc1ccccc1-n1c(SCc2nc3ccccc3c(=O)n2CC#N)nnc1-c1ccc(C(C)(C)C)cc1 | > 10 |  | IC50 (FFLUC_HILL_SLOPE 0.956, FFLUC_R_SQUARED 0.529, read-out: LUCIFERASE INFECTION ASSAY - IC50): > 10 µM
42 | N#Cc1c(N2CCCC(O)C2)nc(N)c2c(N)nc3c(c12)CC(=O)N3C12CC3CC(CC(C3)C1)C2 (centres undefined) | > 10 |  | IC50 (HEPG2TOX_HILL_SLOPE 8.91, HEPG2TOX_R_SQUARED 0.422, PBLUC_HILL_SLOPE 4.43, PBLUC_R_SQUARED 0.134, read-out: LUCIFERASE INFECTION ASSAY - IC50): 6.8 µM
